Assay results as given in PubChem BioAssay (NCI).
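Compound exposure: 48 hours, 5 concentrations, 96-well plates. Here, GI50 denotes the concentration required for 50% inhibition of growth. Definition used: TGI = concentration required for complete inhibition of growth.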

Tests used:
Test in all cases: NCI anticancer screen, dose series, 48 h
[1] = test system: 786-0 renal
[2] = test system: RPMI-8226 leukemia
[3] = test system: RXF 393 renal
[4] = test system: M14 melanoma
[5] = test system: OVCAR-3 ovarian
[6] = test system: HOP-62 NSCLC
[7] = test system: SK-OV-3 ovarian
[8] = test system: SK-MEL-2 melanoma
[9] = test system: HOP-92 NSCLC
[10] = test system: K-562 leukemia
[11] = test system: T-47D breast

| Compound | TGI [1] | TGI [2] | TGI [3] | TGI [4] | TGI [5] | TGI [6] | TGI [7] | TGI [8] | TGI [9] | TGI [10] | TGI [11] | GI50 [2] | GI50 [4] | GI50 [7] | GI50 [11] |
| --- | --- | --- | --- | --- | --- | --- | --- | --- | --- | --- | --- | --- | --- | --- | --- |
| O=[N+]([O-])c1cccc2c(N=Nc3ccc4ccccc4c3O)c(O)cc(S(=O)(=O)O)c12 | > 100 µM | > 100 µM | > 100 µM | 51.2 µM | > 100 µM | > 100 µM | > 100 µM | > 100 µM | > 100 µM | > 100 µM |  |  |  |  |  |
| O=C1c2cccc(O)c2C(=O)c2c(O)cc(CO)cc21 |  | > 100 µM | > 100 µM | > 100 µM |  | > 100 µM | > 100 µM | > 100 µM | > 100 µM |  |  |  |  |  |  |
| O=[N+]([O-])/C(Cl)=C(\NCCN/C(C(Cl)=C(Cl)Cl)=C(/Cl)[N+](=O)[O-])C(Cl)=C(Cl)Cl | > 100 µM | 65.8 µM |  | > 100 µM | > 100 µM | > 100 µM | > 100 µM |  | 53.9 µM | > 100 µM | > 100 µM |  |  |  |  |
| O=C1OC(c2ccccc2)N(C(=O)c2ccccc2)C1Cc1ccc(OCc2ccccc2)cc1 (stereo unspecified) | > 100 µM | > 100 µM |  | > 100 µM |  | > 100 µM | > 100 µM | > 100 µM | 53.4 µM | > 100 µM | > 100 µM |  |  |  |  |
| CC(=O)Oc1c(C)c(C)c2c(c1C)CCC(C)(CC(=O)OCCCCCCCCCCC[P+](c1ccccc1)(c1ccccc1)c1ccccc1)O2 (stereo unspecified) |  | 1.15 µM |  | 1.56 µM |  |  | 0.932 µM |  |  |  | 0.736 µM | 237 nM | 408 nM | 264 nM | 72.7 nM |
| COc1cc([N+](=O)[O-])c(OC)c2c(Nc3ccc(S(=O)(=O)O)c4cc(S(=O)(=O)O)cc(S(=O)(=O)O)c34)cc(C)nc12 | > 100 µM |  | > 100 µM | > 100 µM | > 100 µM | > 100 µM | > 100 µM | > 100 µM |  |  | > 100 µM |  |  |  |  |
| COc1cccc2c1OCC1Cc3ccccc3OC21 (stereo unspecified) | > 100 µM | > 100 µM |  | > 100 µM | 88.8 µM | > 100 µM | > 100 µM | > 100 µM |  | > 100 µM | > 100 µM |  |  |  |  |
| O=C(O)/C=C\C(=O)Nc1ccc(S(=O)(=O)c2ccc(NC(=O)/C=C\C(=O)O)cc2)cc1 | > 100 µM | > 100 µM |  | > 100 µM | > 100 µM | > 100 µM | > 100 µM | > 100 µM | > 100 µM | > 100 µM |  |  |  |  |  |
| O=C1C=CC(=O)C(CNc2ccc(C(=O)OCc3ccccc3)cc2)=C1 | 13.6 µM | > 21 µM | 8.54 µM | 20.8 µM | 7.23 µM | 33 µM | 30.8 µM | 30 µM | 3.8 µM | > 100 µM |  |  |  |  |  |
| COc1cc(C(O)c2ccc3c(c2)OCO3)cc(OC)c1OC (stereo unspecified) | > 100 µM | > 100 µM |  | > 100 µM | > 100 µM | > 100 µM | > 100 µM | > 100 µM | > 100 µM | > 100 µM | > 100 µM |  |  |  |  |
| CON(C)C(=O)C1CCCO1 (stereo unspecified) | > 100 µM | > 100 µM |  | > 100 µM | > 100 µM | > 100 µM | > 100 µM | > 100 µM | > 100 µM | > 100 µM | > 100 µM |  |  |  |  |
| c1ccc(C2CC(=NC3CCCCC3)Nc3ccccc3N2)cc1 (stereo unspecified) | > 100 µM | > 100 µM | > 100 µM | > 100 µM | > 100 µM | > 100 µM | > 100 µM | > 100 µM |  | > 100 µM |  |  |  |  |  |
| CN(C)c1cccc2c1C(=O)C=CC21c2ccc(N(C)C)c3c(N(C)C)ccc(c23)C(c2ccccc2)C1c1ccccc1 (stereo unspecified) | 22.3 µM | 49.3 µM | 36.3 µM | 31.1 µM | 31.2 µM | 39.2 µM | 31.8 µM |  | 28.6 µM | > 100 µM |  |  |  |  |  |
| O=C(NN1C(=O)CSC1c1cccc(F)c1)c1ccncc1 (stereo unspecified) |  | > 100 µM | > 100 µM | > 100 µM |  |  | > 100 µM | > 100 µM |  | > 100 µM |  |  |  |  |  |
| COc1cc(C2c3cc4c(cc3[C@@H](Nc3ccc5c(c3)OCO5)C3COC(=O)[C@H]23)OCO4)cc(OC)c1O (stereo partly specified) |  | 8.59 µM | 6.15 µM |  | 22.2 µM | 0.715 µM | 16.3 µM | 5.96 µM | 8.37 µM | 9.74 µM |  |  |  |  |  |
| CSc1nc2c(ncn2C2OC(CO)C(O)C(O)C2O)c(=O)[nH]1 (stereo unspecified) |  | > 100 µM | > 100 µM |  | > 100 µM | > 100 µM | > 100 µM | > 100 µM | > 100 µM | > 100 µM |  |  |  |  |  |
| C/C(=N\Nc1nc2ccccc2s1)c1ccc2ccccc2n1 | > 100 µM | 45.3 µM | 73.3 µM | > 100 µM | > 100 µM | > 100 µM | > 100 µM | > 100 µM |  |  | 53.5 µM |  |  |  |  |
| CC1(C)N=C2C(=O)c3c([nH]c4ccccc34)[C@]3(C)CCC1CC23 (stereo partly specified) | > 6.25 µM | > 6.25 µM | > 6.25 µM |  | > 6.25 µM | > 6.25 µM |  | > 6.25 µM | > 6.25 µM | > 6.25 µM |  |  |  |  |  |
